These results are taken from a melting point compilation (Tetko et al.; mined from patent text by program, amines drawn as free bases though some values may be those of a salt).

As for `CC1=C(C(=O)OCCN(C)Cc2ccccc2)C(c2cccc3c(=O)c(C)c(-c4ccccc4)oc23)C(C(=O)OC(C)C)=C(C)N1` (configuration not stated), the melting point lay within 170 to 172 °C.
As for `CCSC(=O)CCS(=O)CC` (configuration not stated), the figure is 35.5 to 36 °C; as for `Nc1ncnc2c1c(-c1ccc(Oc3ccccc3)cc1)cn2C1CCOC1` (configuration not stated), 165 to 166 °C.
Under `COC(=O)c1ccc(CCC(=O)/C=C/c2ccc(O)c(OC)c2)o1` stands 93 to 94 °C; under `O=C(Oc1ccc(Cl)cc1)c1cccc(Cl)c1`, 72 °C; under `CC(O)(C(=O)Nc1ccc(S(=O)(=O)N(c2ccccc2)c2ccccc2)cc1)C(F)(F)F` (configuration not stated), 217 to 220 °C.
`C=Cc1cc(C)nc2c(OCc3ccccc3)cccc12`: the melting point was 114 °C.
As for `N#Cc1ccc(/C=C/C=C/C=O)c(F)c1`, the figure is 174 to 177 °C.
Take `CCc1ccc2[nH]c3c(=O)n(CCN(C)C)c4ccccc4c3c2c1`: the melting point was in the range of 266 to 268 °C.
Under `O=C(O)c1nn(-c2ccc(Cl)cc2Cl)c2c1CCCC2` stands 239 to 240 °C; under `COc1cc(CCC2(C)OCc3c2cnc(C)c3O)cc(OC)c1OC` (configuration not stated), 219 °C.
Molecule `O=C1c2cscc2C(=O)c2cscc21` gave a melting point of 340 °C.
Under `CC1(C)Oc2ccc(C#N)cc2[C@@H](OC2=CC(=O)OC2)[C@@H]1O` (relative stereo) stands 111 to 114 °C; under `CC(=O)N1CC(CCN2CC=C(c3ccccc3)CC2)c2ccccc21` (configuration not stated), 109 to 111 °C; under `Fc1cccc(F)c1C1=NC(c2ccc(OCc3ccc(Cl)cc3Cl)cc2)CO1` (configuration not stated), 104 °C.
Under `O=C(CCCCl)c1cc2c(s1)SCCNC2=O` stands 124 to 125 °C; under `CCOC(=O)C(C)c1ccc2oc(Nc3ccc(Cl)cc3)nc2c1` (configuration not stated), 135 to 137 °C; under `CC(C)NCC(O)COc1cccnc1[N+](=O)[O-]` (configuration not stated), 99 to 101 °C.
Under `CN(CC(=O)C(Cc1cccnc1)NC(=O)c1ccccc1)C(=O)N1CCCC1C(=O)O` (configuration not stated) stands 92 to 120 °C; under `CCCCN1C(=O)NC(Cc2ccc(C)s2)C1=O` (configuration not stated), 107 °C.
`COc1cccc(CNc2nc(SCc3ccccc3)nc3nc[nH]c23)c1O` had a melting point of 193 to 194 °C.
`COC1(c2ccc3c(c2)OCO3)CCC(=O)CC1`: the melting point fell in the range of 84 to 85 °C.
For `CCCc1ccc(-c2ccc(-c3ccc(OC)cc3)nn2)cc1`, the melting point lay in the range of 128 to 130 °C.
`O=C(O)c1cc(Br)sc1Cl` came in with a melting point of 159 to 160 °C.
Under `NC1Cc2ccc(-c3ccc(=O)[nH]n3)cc2C1` (configuration not stated) stands 228 to 229 °C.
Under `CC(C)Cc1nn(C)c(=O)c2c(SCCCO)n(Cc3cccc4ccccc34)nc12` stands 141 to 142 °C; under `CC(C)OP(=O)(OC(C)C)c1nc(N)nc(N)n1`, over 400 °C.
As for `Cc1cc(-c2cc(C(F)(F)F)n3ncc(I)c3n2)ccc1C(F)(F)F`, the figure is 160 °C; as for `COc1ccc(C(O)Cc2nccnc2C)cc1` (configuration not stated), 89 to 91 °C; as for `CC(c1ccc(Oc2ccc(N)cc2)cc1)(c1ccc(Oc2ccc(N)cc2)cc1)c1ccc(Oc2ccc(N)cc2)cc1`, 220 to 221 °C.
In turn, `Fc1ccccc1[C@]1(Cn2nc[nH]c2=S)O[C@H]1c1ccccc1Cl` (racemic) gave a melting point of 179 °C.
The molecule `O=C1c2nc(O)ccc2C(=O)c2c(-c3ccccc3NC(=O)C(F)(F)F)ccnc21` had a melting point of over 260 °C.
Under `COc1ccc(CN(C)CCCc2ccc(NC(=O)c3cccc4c(=O)c5cccc(OC)c5sc34)cc2)cc1OC` stands 144 to 146 °C.
In turn, `O=[N+]([O-])c1cccnc1Sc1nc(Cl)no1` had a melting point of 84 °C.
On to `COc1ccc(CC(=O)NCCc2cccc3c2OCO3)cc1OC`, for which the melting point worked out at 124 °C.
For `OCCc1nccn1CCCc1ccc(OCc2coc(/C=C/c3ccc(F)cc3F)n2)cc1`, the melting point was 94 to 96 °C.
Molecule `Clc1ccc2c(c1)N(c1ncnc3cc(Cl)ccc13)CC2` had a melting point of 189 °C.
The molecule `O=C(O)CNC(=O)C1(CS)Cc2ccccc2C1` returned a melting point of 137 to 143 °C.
`CCCN1CC(c2ccc(S(C)(=O)=O)cc2)=C(c2ccc(F)cc2)C1=O`: the melting point fell in the range of 120 to 121 °C.
As for `CCCCc1ccc(C(O)=S)nc1`, the figure is 99 °C.
`O=C(OCc1cc(OCCCBr)cc(OCCCBr)c1)c1ccccc1` came in with a melting point of 85 to 87.5 °C.
Under `CC(=O)N1CCc2c(sc(C)c2CCN2CCC(c3nn(-c4ccc(F)cc4)c4cc(F)ccc34)CC2)C1` stands 193 to 196 °C; under `COc1ccc(-c2nccs2)cc1OC1CCCC1`, 72 to 75 °C; under `CN1C(=O)CCC(C)(C)c2cc(C(=O)Nc3ccc(C(=O)O)cc3)ccc21`, over 275 °C.
Under `O=C(c1ccccc1[N+](=O)[O-])N1CCCc2ccccc21` stands 155 °C; under `FC(F)(F)Sc1ccc(C=Cc2nc(CCl)cs2)cc1`, 133 to 134 °C; under `Cc1cc2c(cc1N(C)CC(C)C)N=C(c1cccc(-n3ncnc3CO)c1)CC(=O)N2`, 191 °C.
As for `CS(=O)(=O)c1ccc(C(CC2CCCC2)C(=O)O)cc1F` (configuration not stated), the figure is 115 to 117 °C; as for `C=C1N(CCCC)C(=O)OC12CCN(CCC=C(c1ccc(Cl)cc1)c1ccc(Cl)cc1)CC2`, 110 to 111 °C; as for `CS(=O)c1ccc(-n2cnc3ccc(-c4nnc(CCc5cccc(C#N)c5)o4)cc32)cc1` (configuration not stated), 194 to 195 °C.
As to `COc1ccc(C2=C(c3ccc(S(C)(=O)=O)cc3)C(C)(C)OC2=O)cc1`, the melting point was 148 °C.
Under `O=C(O)c1cc(-n2c(-c3ccccc3)cc3c2CCc2ccccc2-3)ccc1S` stands 260 to 262 °C.
As for `COC(=O)C1OC(OC(=O)C(C)C)C(OC(=O)C(C)C)C(OC(=O)C(C)C)C1OC(=O)C(C)C` (configuration not stated), the figure is 127 °C.
Regarding `O=C(O)c1ccc(-c2csc(-c3cccnc3)n2)cc1`, the melting point was over 300 °C.
Molecule `CCCCC(CC)COc1ccc(-c2nc(-c3ccc(OCC(CC)CCCC)cc3O)nc(-c3cccn3Cc3ccccc3)n2)c(O)c1` (configuration not stated) registered a melting point of 66 to 68 °C.
Under `S=c1nc(-c2cccnc2Cl)[nH]n1Cc1ccccc1` stands 155 to 156 °C; under `O=C(O)c1cccc2c(-c3ccccc3)coc12`, 220 to 222 °C; under `CCOC(=O)CCCCC1CC(n2c3ccccc3c3ccccc32)c2ccccc2N1C(=O)c1ccc(OC)c(OC)c1` (configuration not stated), 195 to 196 °C.
As for `CC1(C)CCC(Cc2ccc(Cl)cc2)C1(O)CO` (configuration not stated), the figure is 103 to 104 °C.
Under `CC(=O)SCC(Cc1ccccc1)C(=O)Nc1ccc(N2CCCC2)c(C(=O)O)c1` (configuration not stated) stands 176 to 178 °C.
In the case of `Cc1cc(-c2ccc(C(F)(F)F)nc2)nc(-c2cccc(-c3cccc(S(N)(=O)=O)c3)c2)n1`, the melting point was determined as 220 °C.
`CC(=O)CCCCC(=O)Nc1ccc(CCC(=O)O)cc1` came in with a melting point of 148 to 160 °C.
As for `COc1cc(OC)cc(-c2ncoc2-c2ccc(OC)c(O)c2F)c1`, the figure is 168 to 172 °C; as for `COC(CO)(OC)C1(c2ccc(Cl)cc2)CCC1`, 73 to 74 °C.
Under `Cn1ncc2c1-c1c(Oc3ccc(OCc4ccc(Cl)cc4)cc3)sc(C(N)=O)c1CC2` stands 216 to 217 °C; under `CN1CCOc2ccc(S(=O)(=O)n3c(Cc4ccc(C(=O)O)cc4)cc4c(Cl)cccc43)cc21`, 236 °C; under `O=C(CNC(=O)c1cc([N+](=O)[O-])ccc1F)OCc1ccccc1`, 56 to 58 °C.
As for `CC1(c2cccs2)Cc2cc(O)c(Cl)c(Cl)c2C1=O` (configuration not stated), the figure is 224 to 226 °C; as for `CCC(CC)(CC)C(=O)NC(C)(C)CO`, 57 to 58 °C; as for `CC(C)=CCn1c(-c2ccc3c(c2)OCO3)nc2ccccc21`, 73.8 to 76 °C.
As to `CC(=O)c1ccncc1OC1SCC(O)C(O)C1O` (configuration not stated), the melting point was 163 °C.
Under `Cc1cccc(OC(=O)n2c3c(c(=O)n(C4CCCCO4)c2=O)CCC3)c1` (configuration not stated) stands 155 °C; under `CN(C)C=C1CN=C(c2ccccc2Cl)c2cc(Cl)ccc2C1=O`, 170 to 171 °C.
The molecule `C=Cc1cc([C@@H](C)NC(=O)C=Cc2ccc(C(C)(C)C)cc2)cc(F)c1NS(C)(=O)=O` gave a melting point of 127 to 129 °C.
Under `CC12CCC3c4ccc(OC(=O)c5ccccc5)cc4CCC3C1CCC2OC(=O)c1cccnc1` (configuration not stated) stands 151 to 154 °C.
`O=c1c2ccc(Cl)cc2n(Cc2ccccc2)n2c(Cl)ccc12` registered a melting point of 134 to 136 °C.
Under `Cc1cc(Oc2ncc(C(F)(F)F)cc2Cl)nn1C(=O)N(C)C` stands 102 to 104 °C; under `CCOCc1nc2c(N)nc(C)c(C)c2n1CCCCS(=O)(=O)NC`, 194 to 196 °C.
As for `Cc1nc(N2CCOCC2)c2n1-c1ccc(Cl)cc1C(c1ccccc1F)=NC2`, the figure is 172 to 174 °C; as for `Cc1cc(Cn2cc(C3c4ccccc4C=Cc4ccccc43)c(=S)[nH]c2=O)cc(C(=O)O)c1`, over 240 °C.
Take `CC(O)c1cc(Br)ccc1OCc1ccccc1` (configuration not stated): the melting point turned out to be 76.7 °C.
Take `CCOC(=O)c1cc(C(=O)c2ccccc2Cl)c(-n2c(C)nnc2CNC(=O)c2cc3ccccc3[nH]2)s1`: the melting point lay within 135 to 140 °C.
As to `N#Cc1ccc(C[C@]23C[C@@H](O)CN2C(=O)N(c2cc(Cl)nc(Cl)c2)C3=O)cc1`, the melting point is 97.6 °C.
As for `COc1ccc(-c2nn(CCCc3ccccc3)c(=O)cc2-c2ccncc2)cc1`, the figure is 67.7 to 68.3 °C; as for `CCOC(=O)C1=C(C#N)NC(C)=C(C(=O)OCCOCc2ccccc2)C1c1cccc([N+](=O)[O-])c1` (configuration not stated), 114 to 115 °C.
Under `O=C1CC(c2ccccc2)c2cc(O)ccc2O1` (configuration not stated) stands 138 °C.
Under `COc1ccc(C(=O)c2cccc(CC(=O)O)c2)cc1` stands 138 to 140 °C.

As usually defined, the melting point is the temperature of the solid-liquid transition.
